Experimental findings from BindingDB's records for doi:10.1016/j.bmc.2006.09.052 (Kirin Brewery, 2006) are described below.

pIC50: −log10 of the molar value.

This assay in a line: Inhibition of MCP1-induced cell migration in U937 cells expressing CCR2 by chemotaxis assay.
Broadly, the pIC50 is the IC50 on a negative log10 scale, so that one unit is a factor of ten. Read a high pIC50 as a small IC50. With `c1c[nH]c(CN2CCCC(Nc3ccc4[nH]ncc4c3)C2)c1` (stereo unspecified) [N-[1-(1H-2-pyrrolylmethyl)-3-piperidyl]-N-(1H-5-indazolyl)amine], the pIC50 is 5.00.

Regarding `Nc1ccc(CN2CCCC(Nc3ccc4[nH]ncc4c3)C2)cc1` (stereo unspecified) [N-(1-(4-aminobenzyl)piperidin-3-yl)-1H-indazol-5-amine], the pIC50 was 5.70.

Compound `c1ccc(CN2CCCC(Oc3ccc4[nH]ncc4c3)C2)cc1` (stereo unspecified) [1-benzyl-3-piperidyl-(1H-5-indazolyl)ether] gave a pIC50 of 6.00.

The compound `COc1cc(CN2CCCC(Nc3ccc4[nH]ncc4c3)C2)cc(OC)c1` (stereo unspecified) [N-(1-(3,5-dimethoxybenzyl)piperidin-3-yl)-1H-indazol-5-amine] showed a pIC50 of less than 4.52.

With `Clc1ccccc1CN1CCCC(Nc2ccc3[nH]ncc3c2)C1` (stereo unspecified) [N-[1-(2-chlorobenzyl)-3-piperidyl]-N-(1H-5-indazolyl)amine], the negative-log IC50 (pIC50) was 5.10.

In turn, `Clc1ccc(CN2CCC(Nc3ccc4[nH]ncc4c3)C2)cc1` (stereo unspecified) [N-[1-(4-chlorobenzyl)-3-pyrrolidyl]-N-(1H-5-indazolyl)amine] showed a negative-log IC50 (pIC50) of 6.00.

In the case of `c1cc(CN2CCCC(Nc3ccc4[nH]ncc4c3)C2)ccn1` (stereo unspecified) [N-(1-(pyridin-4-ylmethyl)piperidin-3-yl)-1H-indazol-5-amine], the pIC50 was less than 4.52.

With `O=[N+]([O-])c1ccc(CN2CCCC(Nc3ccc4[nH]ncc4c3)C2)cc1` (stereo unspecified) [N-(1-(4-nitrobenzyl)piperidin-3-yl)-1H-indazol-5-amine], the pIC50 was 4.72.

In turn, `Clc1ccccc1CN1CCC(Nc2ccc3[nH]ncc3c2)C1` (stereo unspecified) [N-[1-(2-chlorobenzyl)-3-pyrrolidyl]-N-(1H-5-indazolyl)amine] had a pIC50 of 5.15.

Consider `c1coc(CN2CCCC(Nc3ccc4[nH]ncc4c3)C2)c1` (stereo unspecified) [N-(1-(furan-2-ylmethyl)piperidin-3-yl)-1H-indazol-5-amine], for which the pIC50 is 5.30.

For `c1cncc(CN2CCCC(Nc3ccc4[nH]ncc4c3)C2)c1` (stereo unspecified) [N-[1-(3-pyridylmethyl)-3-piperidyl]-N-(1H-5-indazolyl)amine], the pIC50 was 4.70.

On to `c1csc(CN2CCCC(Nc3ccc4[nH]ncc4c3)C2)c1` (stereo unspecified) [N-(1-(thiophen-2-ylmethyl)piperidin-3-yl)-1H-indazol-5-amine], for which the pIC50 is 5.22.

Take `COc1ccc(CN2CCCC(Nc3ccc4[nH]ncc4c3)C2)cc1` (stereo unspecified) [N-(1-(4-methoxybenzyl)piperidin-3-yl)-1H-indazol-5-amine]: the pIC50 was 6.00.

In the case of `c1ccc(CN2CCC(Nc3ccc4[nH]ncc4c3)C2)cc1` (stereo unspecified) [N-(1-benzylpyrrolidin-3-yl)-1H-indazol-5-amine], the pIC50 was 5.00.

Turning to `O=[N+]([O-])c1cccc(CN2CCCC(Nc3ccc4[nH]ncc4c3)C2)c1` (stereo unspecified) [N-[1-(3-nitrobenzyl)-3-piperidyl]-N-(1H-5-indazolyl)amine], the pIC50 was 4.72.

In the case of `O=C(NCc1ccccc1)Nc1ccc2[nH]ncc2c1` [1-benzyl-3-(1H-indazol-5-yl)urea], the pIC50 is less than 4.00.

`c1ccc(CN2CCCC(Nc3ccc4[nH]ncc4c3)C2)cc1` (stereo unspecified) [N-(1-benzylpiperidin-3-yl)-1H-indazol-5-amine] showed a pIC50 of 5.70.

Turning to `Cc1ccc(CN2CCCC(Nc3ccc4[nH]ncc4c3)C2)cc1` (stereo unspecified) [N-(1-(4-methylbenzyl)piperidin-3-yl)-1H-indazol-5-amine], the pIC50 was 6.00. Compared with the last compound, the pIC50 is 0.30 log units higher.

`O=C(NCc1c(F)cccc1F)Nc1ccc2[nH]ncc2c1` [N-(2,6-difluorobenzyl)-N0-(1H-5-indazolyl)urea]: the pIC50 is less than 4.00.

In the case of `Fc1ccc(CN2CCCC(Nc3ccc4[nH]ncc4c3)C2)cc1` (stereo unspecified) [N-(1-(4-fluorobenzyl)piperidin-3-yl)-1H-indazol-5-amine], the pIC50 was 5.40.

The compound `O=C(NCc1ccc(Cl)cc1Cl)Nc1ccc2[nH]ncc2c1` [N-(2,4-dichlorobenzyl)-N0-(1H-5-indazolyl)urea] had a pIC50 of less than 4.00.

`Nc1ccccc1CN1CCCC(Nc2ccc3[nH]ncc3c2)C1` (stereo unspecified) [N-[1-(2-aminobenzyl)-3-piperidyl]-N-(1H-5-indazolyl)amine] showed a pIC50 of 6.00.

Consider `c1cc(CN2CCCC(Nc3ccc4[nH]ncc4c3)C2)cs1` (stereo unspecified) [N-(1-(thiophen-3-ylmethyl)piperidin-3-yl)-1H-indazol-5-amine], for which the pIC50 was 6.00.

Compound `Clc1cccc(CN2CCC(Nc3ccc4[nH]ncc4c3)C2)c1` (stereo unspecified) [N-[1-(3-chlorobenzyl)-3-pyrrolidyl]-N-(1H-5-indazolyl)amine] gave a pIC50 of 5.30. Against the preceding compound, the pIC50 is 0.70 log units lower.

On to `c1ccc(CN2CCC(Nc3ccc4[nH]ncc4c3)CC2)cc1` [N-(1-benzylpiperidin-4-yl)-1H-indazol-5-amine], for which the negative-log IC50 (pIC50) was 4.52.

On to `Fc1ccc(CN2CCCC(Nc3ccc4[nH]ncc4c3)C2)cc1F` (stereo unspecified) [N-(1-(3,4-difluorobenzyl)piperidin-3-yl)-1H-indazol-5-amine], for which the pIC50 was 6.00.

As to `Nc1cccc(CN2CCCC(Nc3ccc4[nH]ncc4c3)C2)c1` (stereo unspecified) [N-[1-(3-aminobenzyl)-3-piperidyl]-N-(1H-5-indazolyl)amine], the pIC50 is 5.52.

On to `Clc1ccc(CN2CCCC(Nc3ccc4[nH]ncc4c3)C2)cc1` (stereo unspecified) [N-(1-(4-chlorobenzyl)piperidin-3-yl)-1H-indazol-5-amine], for which the pIC50 is 6.00.

Compound `c1ccc(CN2CCC(Oc3ccc4[nH]ncc4c3)CC2)cc1` [1-benzyl-4-piperidyl-(1H-5-indazolyl)ether] showed a pIC50 of 5.22.

The compound `O=C(Nc1ccc2[nH]ncc2c1)C1CCCN(Cc2ccccc2)C1` (stereo unspecified) [1-benzyl-N-(1H-indazol-5-yl)piperidine-3-carboxamide] showed a pIC50 of 6.00.

Regarding `Clc1cccc(CN2CCCC(Nc3ccc4[nH]ncc4c3)C2)c1` (stereo unspecified) [N-[1-(3-chlorobenzyl)-3-piperidyl]-N-(1H-5-indazolyl)amine], the pIC50 is 5.10.
